Assay results: patent publication US10711036B2, “MALT1 inhibitors and uses thereof” (Cornell University, priority 2015, dated 2020)
Where a SMILES comes first, the peptide text is derived from it. [ ]: non-standard residue; d: D form. The star is where a group is joined. ξ: configuration not given here. Ile(3ξ) = CCC(C)[C@H](N)C(=O)O; Chg = N[C@H](C(=O)O)C1CCCCC1; Ac5c = NC1(C(=O)O)CCCC1; Cbz = O=C(OCc1ccccc1)*; CH2F = FC*

Tests used:
OCI-LY1 = assay: Maximum killing effect on OCI-LY1; assay type: cell-based
Protocol: (§1) The maximum killing effects on cell-lines OCI-LY3, TMD8, and OCI-LY1 were also measured for select compounds at inhibitor concentration of 20 μM and 5 μM. TMD8 is another line of ABC type diffuse large-B cell lymphoma, while OCI-LY1 is a DLBCL line of the germinal center B-cell subtype.

TMD8 = assay: Maximum killing effect on TMD8; assay type: cell-based
Protocol: as §1

MALT1 = MALT1 (Homo sapiens (Human), UniProt Q9UDY8); assay: Inhibition constants (Ki) for inhibition of MALT1; assay type: biochemical; settings: 100 nM MALT1 used for the assay
Sequence of MALT1 (Q9UDY8 whole entry): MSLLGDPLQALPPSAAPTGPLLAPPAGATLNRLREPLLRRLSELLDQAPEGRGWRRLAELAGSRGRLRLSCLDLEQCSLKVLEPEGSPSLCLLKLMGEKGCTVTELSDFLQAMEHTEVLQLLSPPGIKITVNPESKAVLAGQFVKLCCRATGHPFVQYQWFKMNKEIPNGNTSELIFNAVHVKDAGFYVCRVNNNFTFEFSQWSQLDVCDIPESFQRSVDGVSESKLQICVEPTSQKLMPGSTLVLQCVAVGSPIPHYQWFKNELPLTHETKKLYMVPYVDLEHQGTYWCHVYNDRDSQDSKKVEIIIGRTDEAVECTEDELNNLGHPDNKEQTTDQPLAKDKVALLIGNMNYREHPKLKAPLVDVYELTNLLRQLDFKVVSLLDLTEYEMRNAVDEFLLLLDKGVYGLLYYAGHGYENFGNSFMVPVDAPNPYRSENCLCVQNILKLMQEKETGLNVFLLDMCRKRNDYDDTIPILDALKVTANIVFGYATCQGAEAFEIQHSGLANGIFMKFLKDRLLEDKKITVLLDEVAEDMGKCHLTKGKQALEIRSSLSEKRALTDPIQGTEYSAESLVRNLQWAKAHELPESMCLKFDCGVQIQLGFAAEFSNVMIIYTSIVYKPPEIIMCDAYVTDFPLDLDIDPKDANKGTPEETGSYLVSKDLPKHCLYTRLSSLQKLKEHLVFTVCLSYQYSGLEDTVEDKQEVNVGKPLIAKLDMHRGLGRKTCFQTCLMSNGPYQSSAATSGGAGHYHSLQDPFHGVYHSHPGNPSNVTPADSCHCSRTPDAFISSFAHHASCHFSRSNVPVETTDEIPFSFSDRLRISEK
Protocol: For exemplary compounds of the disclosure, Ki for inhibition of MALT1 was measured (Table E11). A concentration of 100 nM MALT1 was used for the assay.

OCI-LY3 [1] = assay: Maximum killing effect on OCI-LY3; assay type: cell-based, human
Protocol: as §1

OCI-LY3 [2] = assay: Cell growth inhibition assay (CellTiter-Glo, 96 hours), OCI-LY3; assay type: cell-based, human; settings: Homo sapiens, OCI-LY3 cells, treated at t=0 and t=48 hours, ATP luminescence
Protocol: DLBCL cell lines were grown in exponential growth conditions during the 96 hours of treatment. Cells were treated twice: at t=0 and t=48 hours, and cell viability was determined by ATP quantification using a luminescent method ([…]-GLO, Promega, Madison, Wis.). Cell viability in drug-treated cells was normalized to vehicle controls (fractional viability) and results are given as 1-fractional viability.
Experiments were Performed in Triplicate.

| SMILES | Ki (MALT1) [nM] | GI50 (OCI-LY3 [2]) [nM] | also measured |
| --- | --- | --- | --- |
| N=C(N)NCCC[C@H](NC(=O)[C@@H]1CCCN1C(=O)[C@@H](NC(=O)OCc1ccccc1)C1CCCCC1)C(=O)CF [Compound 102] (Cbz-[Chg]-Pro-Arg-CH2F) | 44 | 1450 | Maximum killing effect (OCI-LY1; OCI-LY1, 20 μM): 19%; Maximum killing effect (TMD8; TMD8, 20 μM): 54%; Maximum killing effect (OCI-LY3 [1]; OCI-LY3, 20 μM): 85% |
| CC(C)[C@H](NC(=O)c1ccccc1Br)C(=O)N1CCC[C@H]1C(=O)N[C@@H](CCCNC(=N)N)C(=O)CF [Compound 114] | 105 | 4240 | Maximum killing effect (OCI-LY1; OCI-LY1, 20 μM): 9%; Maximum killing effect (TMD8; TMD8, 20 μM): 40%; Maximum killing effect (OCI-LY3 [1]; OCI-LY3, 20 μM): 80% |
| CC(C)[C@H](NC(=O)c1cccc(Br)c1)C(=O)N1CCC[C@H]1C(=O)N[C@@H](CCCNC(=N)N)C(=O)CF [Compound 115] | 41 | 530 | Maximum killing effect (OCI-LY1; OCI-LY1, 20 μM): 15%; Maximum killing effect (TMD8; TMD8, 20 μM): 64%; Maximum killing effect (OCI-LY3 [1]; OCI-LY3, 20 μM): 84% |
| CC(C)[C@H](NC(=O)C1CCCCC1)C(=O)N1CCC[C@H]1C(=O)N[C@@H](CCCNC(=N)N)C(=O)CF [Compound 120] | 56 | 940 | Maximum killing effect (OCI-LY1; OCI-LY1, 20 μM): <0%; Maximum killing effect (TMD8; TMD8, 20 μM): 52%; Maximum killing effect (OCI-LY3 [1]; OCI-LY3, 20 μM): 81% |
| N=C(N)NCCC[C@H](NC(=O)[C@@H]1CCCN1C(=O)[C@@H](NC(=O)c1ccc(Br)cc1)C1CCCCC1)C(=O)CF [Compound 143] | 45 | 130 | – |
| CC(C)[C@H](NC(=O)c1ccc(Br)cc1)C(=O)N1CCCC[C@H]1C(=O)N[C@@H](CCCNC(=N)N)C(=O)CF [Compound 144] | 79 | 460 | – |
| CC(C)[C@H](NC(=O)c1ccc(OC(F)(F)F)cc1)C(=O)N1CCC[C@H]1C(=O)N[C@@H](CCCNC(=N)N)C(=O)CF [Compound 145] | 27 | 700 | – |
| CC(C)[C@H](NC(=O)c1ccc(Cl)c(C#N)c1)C(=O)N1CCC[C@H]1C(=O)N[C@@H](CCCNC(=N)N)C(=O)CF [Compound 147] | 24 | 550 | – |
| CC(C)[C@H](NC(=O)c1cccc(OC(F)(F)F)c1)C(=O)N1CCC[C@H]1C(=O)N[C@@H](CCCNC(=N)N)C(=O)CF [Compound 148] | 15 | 530 | – |
| CC(C)[C@H](NC(=O)c1cccc2ccccc12)C(=O)N1CCC[C@H]1C(=O)N[C@@H](CCCNC(=N)N)C(=O)CF [Compound 153] | 102 | 160 | – |
| CC(C)[C@H](NC(=O)/C=C/c1ccccc1)C(=O)N1CCC[C@H]1C(=O)N[C@@H](CCCNC(=N)N)C(=O)CF [Compound 154] | 36 | 110 | – |
| CC(C)[C@H](NC(=O)c1ccc2ccccc2n1)C(=O)N1CCC[C@H]1C(=O)N[C@@H](CCCNC(=N)N)C(=O)CF [Compound 155] | 55 | 570 | – |
| CC(C)[C@H](NC(=O)c1cnc2ccccc2c1)C(=O)N1CCC[C@H]1C(=O)N[C@@H](CCCNC(=N)N)C(=O)CF [Compound 156] | 40 | 3880 | – |
| CC(C)[C@H](NC(=O)c1ccc2cnccc2c1)C(=O)N1CCC[C@H]1C(=O)N[C@@H](CCCNC(=N)N)C(=O)CF [Compound 157] | 59 | 630 | – |
| CC(C)[C@H](NC(=O)c1ccc2ccncc2c1)C(=O)N1CCC[C@H]1C(=O)N[C@@H](CCCNC(=N)N)C(=O)CF [Compound 158] | 110 | 1700 | – |
| CC(C)[C@H](NC(=O)c1ccnc2ccccc12)C(=O)N1CCC[C@H]1C(=O)N[C@@H](CCCNC(=N)N)C(=O)CF [Compound 159] | 139 | 4220 | – |
| CC(C)[C@H](NC(=O)c1ccc(F)cc1)C(=O)N1CCC[C@H]1C(=O)N[C@@H](CCCNC(=N)N)C(=O)CF [Compound 160] | 13 | 2340 | – |
| CC(C)[C@H](NC(=O)c1ccc(F)cc1)C(=O)N1CCC[C@H]1C(=O)N[C@H](CCCNC(=N)N)C(=O)CF [Compound 161] | 346 | 910 | – |

| SMILES | Ki (MALT1) [nM] | GI50 (OCI-LY3 [2]) [nM] | also measured |
| --- | --- | --- | --- |
| CC(C)[C@H](NC(=O)c1ccc(C(C)(C)C)cc1)C(=O)N1CCC[C@H]1C(=O)N[C@@H](CCCNC(=N)N)C(=O)CF [Compound 162] | 45 | 980 | – |
| CC(C)[C@H](NC(=O)Nc1ccc(Cl)cc1)C(=O)N1CCC[C@H]1C(=O)N[C@@H](CCCNC(=N)N)C(=O)CF [Compound 164] | 62 | 780 | – |
| CC(C)[C@H](NC(=O)Nc1cccc(Cl)c1)C(=O)N1CCC[C@H]1C(=O)N[C@@H](CCCNC(=N)N)C(=O)CF [Compound 165] | 27 | 520 | – |
| CC(C)[C@H](NC(=O)c1ccc(Br)cc1)C(=O)N1C[C@H](O)C[C@H]1C(=O)N[C@@H](CCCNC(=N)N)C(=O)CF [Compound 171] | 50 | 70 | – |
| N=C(N)NCCC[C@H](NC(=O)[C@H](CO)NC(=O)[C@@H](NC(=O)c1ccc(Br)cc1)C1CCCCC1)C(=O)CF [Compound 173] | 46 | 240 | – |
| CC(C)[C@H](NC(=O)c1ccc(Br)cc1)C(=O)N1COC[C@H]1C(=O)N[C@@H](CCCNC(=N)N)C(=O)CF [Compound 174] | 20 | 120 | – |
| CC(C)[C@H](NC(=O)c1ccc(Br)cc1)C(=O)N1CCOC[C@H]1C(=O)N[C@@H](CCCNC(=N)N)C(=O)CF [Compound 175] | 70 | 460 | – |
| CC(C)[C@H](NC(=O)c1ccc(Br)cc1)C(=O)N1CC[C@H]1C(=O)N[C@@H](CCCNC(=N)N)C(=O)CF [Compound 176] | 118 | 770 | – |
| CC(C)[C@H](NC(=O)c1ccc(Br)cc1F)C(=O)N1CCC[C@H]1C(=O)N[C@@H](CCCNC(=N)N)C(=O)CF [Compound 179] | 71 | 810 | – |
| CCC(C)[C@H](NC(=O)OCc1ccccc1)C(=O)N1CCC[C@H]1C(=O)N[C@@H](CCCNC(=N)N)C(=O)CF (stereo partly drawn) [Compound 180] (Cbz-[Ile(3ξ)]-Pro-Arg-CH2F) | 30 | 2440 | – |
| N=C(N)NCCC[C@H](NC(=O)[C@@H]1CCCN1C(=O)C1(NC(=O)OCc2ccccc2)CCCC1)C(=O)CF [Compound 181] (Cbz-[Ac5c]-Pro-Arg-CH2F) | 1180 | 4310 | – |
| N=C(N)NCCC[C@H](NC(=O)[C@@H]1CCCN1C(=O)[C@H](Cc1ccccc1)NC(=O)OCc1ccccc1)C(=O)CF [Compound 182] | 76 | 2300 | – |
| Cc1cc(Br)ccc1C(=O)N[C@H](C(=O)N1CCC[C@H]1C(=O)N[C@@H](CCCNC(=N)N)C(=O)CF)C(C)C [Compound 183] | 40 | 850 | – |
| CC(C)C[C@H](NC(=O)OCc1ccccc1)C(=O)N1CCC[C@H]1C(=O)N[C@@H](CCCNC(=N)N)C(=O)CF [Compound 184] (Cbz-Leu-Pro-Arg-CH2F) | 93 | 5490 | – |
| CC(C)C[C@H](NC(=O)c1ccc(Br)cc1)C(=O)N1CCC[C@H]1C(=O)N[C@@H](CCCNC(=N)N)C(=O)CF [Compound 185] | 182 | 1100 | – |
| N=C(N)NCCC[C@H](NC(=O)[C@@H]1CCCN1C(=O)[C@H](Cc1ccc(C(F)(F)F)cc1)NC(=O)c1ccc(Br)cc1)C(=O)CF [Compound 186] | 448 | 1370 | – |
| CC(C)[C@H](NC(=O)OCc1ccccc1)C(=O)N[C@@H](CCCNC(=N)N)C(=O)N1CCC[C@H]1C(=O)N[C@@H](CCCNC(=N)N)C(=O)CF [Z-VRPR-fmk, reference compound] | – | – | Maximum killing effect (OCI-LY1; OCI-LY1, 5 μM): <0%; Maximum killing effect (OCI-LY1; OCI-LY1, 20 μM): <0%; Maximum killing effect (TMD8; TMD8, 5 μM): 27%; Maximum killing effect (TMD8; TMD8, 20 μM): 67%; Maximum killing effect (OCI-LY3 [1]; OCI-LY3, 5 μM): 42%; Maximum killing effect (OCI-LY3 [1]; OCI-LY3, 20 μM): 62% |
| CN1CCCC(CN2c3ccccc3Sc3ccccc32)C1 (centres unmarked) [mepazine, reference compound] | – | – | Maximum killing effect (OCI-LY1; OCI-LY1, 5 μM): 6%; Maximum killing effect (OCI-LY1; OCI-LY1, 20 μM): 82%; Maximum killing effect (TMD8; TMD8, 5 μM): 32%; Maximum killing effect (TMD8; TMD8, 20 μM): 99%; Maximum killing effect (OCI-LY3 [1]; OCI-LY3, 5 μM): 35%; Maximum killing effect (OCI-LY3 [1]; OCI-LY3, 20 μM): 97% |
